We go through three molecules from patent publication US12325862B2, “Compositions and methods for transgenic crops resistant to thaxtomins” (University of Florida Research Foundation, Inc., priority 2019, dated 2025).

The test system of one data set is radish seedlings. Description: Radish seedling assay. It counts as in vivo. The following applies: for growth of radish seedlings on agar plate: after seven days, compared with negative control DMSO. How it is done:
Serial concentrations of thaxtomins in DMSO were added into 20 mL of 1.5% warm agar solution with gentle agitation to the final concentrations range from 0 to 2 μM. DMSO was included as a negative control. The solution was then poured into the plate for solidification at room temperature for 30 min. Radish seeds (W. Atlee Burpee & Co., Warminster Township, Pennsylvania) were surface disinfested, pregerminated, and selected when the radicle was […] and just emerged from the seed coat. Six radish seedlings were equally located on the surface of each plate with the root ends all pointed in the same direction. Agar plates were covered and sealed with Parafilm®. The seedlings in the agar plates grew at room temperature under fluorescent lighting (12 h per day for 7 days), and then the seedling with average size of all seedlings in the same plate was selected for comparison.
A radish seedling assay was carried out to investigate the herbicidal activity of serial concentrations of 4-amino thaxtomin A (compound 5). The assay also included DMSO as negative control and thaxtomin A (1) as positive control. […] The diminished herbicidal activity is caused by the transformation of the nitro group of thaxtomin A (1) into the amine group.

Data set [1] can be described thus: NfsB enzymatic reaction, conditions optimized with thaxtomin A as substrate. It counts as biochemical. How it is done: Enzymatic reaction conditions were optimized with thaxtomin A as substrate. […] When coupled with a glucose dehydrogenase (GDH)- or phosphite dehydrogenase (PTDH)-based NADPH regeneration system, the enzyme at 10 μM achieved greater than 90% conversion of thaxtomin A (2 mM) at 37° C. in 8 hours. […] In addition, a crude extract of engineered thaxtomin producing strain Streptomyces albus-thx2 was prepared; the extract contained about 69% thaxtomin A based on HPLC analysis.

As to `CN1C(=O)[C@](O)(Cc2cccc(O)c2)N(C)C(=O)[C@@H]1Cc1c[nH]c2cccc(N)c12` [compound 5, 4-amino thaxtomin A], the “growth of radish seedlings on agar plate” value with radish seedlings (0.05 μM) and in the data set on radish seedlings (2.0 μM) was “the same as the negative control DMSO” each time. Besides, the “herbicidal activity to radish seedlings” value with radish seedlings (overall conclusion, 0.05 μM and 2.0 μM) is recorded as “minimal to no herbicidal activity”.
`CN1C(=O)[C@](O)(Cc2cccc(O)c2)N(C)C(=O)[C@@H]1Cc1c[nH]c2cccc([N+](=O)[O-])c12` [thaxtomin A, reference compound]: the “growth of radish seedlings on agar plate” value in the data set with radish seedlings (2.0 μM) is listed as “significantly inhibited”.

B1: NfsB: nitroreductase from Haemophilus influenzae (SEQ ID NO: 4), recombinant with C-terminal His6 tag (protein, listed as Haemophilus influenzae)
chain: MTQLTREQVLELFHQRSSTRYYDPTKKISDEDFECILECGRLSPSSVGSEPWKFLVIQNKTLREKMKPFSWGMINQLDNCSHLVVILAKKNARYDSPFFVDVMARKGLNAEQQQAALTKYKALQEEDMKLLENDRTLFDWCSKQTYIALANMLTGASALGIDSCPIEGFHYDKMNECLAEEGLFDPQEYAVSVAATFGYRSRDIAKKSRKGLDEVVKWVG
modifications: C-terminal His6 tag
On to B1, for which the “conversion of thaxtomin A (1) in crude extract into compound 5” value in data set [1] (crude extract of Streptomyces albus-thx2, about 69% thaxtomin A) is reported as “completely converted”. For the same molecule, the “conversion of thaxtomin A” value in data set [1] (enzyme 10 μM, thaxtomin A 2 mM, 37° C., 8 hours, GDH- or PTDH-based NADPH regeneration system) was “greater than 90%”. Further, the “temperature of highest enzyme activity” value in data set [1] (thaxtomin A as substrate) was 37 °C.
